Data published in patent EP2380597A1, “Cyclopeptide derivatives and uses thereof” (Technische Universität München, priority 2010, dated 2011).
*1 amine or outer side, *2 acyl side, *3 side chain or, on linkers, in order; H or OH if unused. Where a SMILES comes first, the peptide text is derived from it. Bridges are numbered along the chain shown (N, C = ends). Roman numbers before positions name the chains, in order. [ ]: non-standard residue; d: D form. The star is where a group is joined. dAla(N-(6-guanidinohexyl)) = C[C@@H](NCCCCCCNC(=N)N)C(=O)O; DOTA = O=C(O)CN1CCN(CC(=O)O)CCN(CC(=O)*)CCN(CC(=O)O)CC1; X6 = C[C@H](C(=O)[*:2])N(CCCCCCCNC(=O)c1ccc(F)cc1)[*:1]; X14 = C[C@H](C(=O)[*:2])N(CCCCCNC(=O)c1ccc(F)cc1)[*:1]; X8 = C[C@H](C(=O)[*:2])N(CCCCCCNC(=O)c1ccc(F)cc1)[*:1]; X5 = C[C@H](C(=O)[*:2])N(CCCCCCNCc1cccc2ccccc12)[*:1]; X9 = C[C@H](C(=O)[*:2])N(CCCCNC(=O)c1ccc(F)cc1)[*:1]; X4 = C[C@H](C(=O)[*:2])N(CCCCCCNCc1ccccc1)[*:1]; X1 = C[C@@H](C(=O)[*:2])N(CCCCCCNC(=N)N)[*:1]; X7 = CC(=O)NCCCCCCN([C@H](C)C(=O)[*:2])[*:1]; X3 = C[C@H](C(=O)[*:2])N(CCCCCCN[*:3])[*:1]; X10 = C[C@@H](C(=O)[*:2])N(CCCCCCN)[*:1]; X12 = C[C@H](C(=O)[*:2])N(CCCCCCN)[*:1]; X2 = C[C@H](C(=O)[*:2])N(CCCCCCCN)[*:1]; X13 = C[C@H](C(=O)[*:2])N(CCCCCN)[*:1]; 2Nal = N[C@@H](Cc1ccc2ccccc2c1)C(=O)O; Suberoyl = O=C(CCCCCCC(=O)[*:2])[*:1]; X11 = C[C@H](C(=O)[*:2])N(CCCCN)[*:1]; Adipoyl = O=C(CCCCC(=O)[*:2])[*:1]; Gly(N-(CH2)6NH2) = NCCCCCCNCC(=O)O; Suc = O=C(CCC(=O)[*:2])[*:1]

Target: T1, CXCR4 receptor (Homo sapiens, UniProt P61073)
T1 construct: endogenous in cells; host or cells: Jurkat cells
Assay: Receptor binding assay (competition with 125I tracer on Jurkat cells)
Conditions: tracer cyclo(-D-Tyr^1 [^125I]-Arg^2-Arg^3-Nal^4-Gly^5), 2 h at room temperature
Description: For receptor binding assays cells were resuspended in PBS/0.2 % BSA. A total of 200 µl of the suspension containing 400,000 Jurkat cells were incubated with 25 µl of the tracer solution (containing 100000cpm / 25µl, approx. 0.1 nM) and 25 µl of the diluent or the competitor at different concentrations. For determination of IC50 values, cyclo(-D-Tyr^1 [^125I]-Arg^2-Arg^3-Nal^4-Gly^5) was used as a tracer. Nonspecific binding was determined in the presence of 1 µM cold cyclo(-D-Tyr^1[^127I]-Arg^2-Arg^3-Nal^4-Gly^5). After shaking for 2 h at room temperature, the incubation was terminated by centrifugation at 2000 rpm for 5 min. Cell pellets were washed once with 400µl cold PBS followed by a second centrifugation step. Cell bound radioactivity was determined by using a gamma counter. Experiments were repeated 2-3 times in triplicates. IC50 values of the compounds were calculated by nonlinear regression using GraphPad Prism (GraphPad Prism 4.0 Software, Inc., San Diego, CA, USA). Each data point is the average of three determinations.

T1 sequence (P61073 whole entry): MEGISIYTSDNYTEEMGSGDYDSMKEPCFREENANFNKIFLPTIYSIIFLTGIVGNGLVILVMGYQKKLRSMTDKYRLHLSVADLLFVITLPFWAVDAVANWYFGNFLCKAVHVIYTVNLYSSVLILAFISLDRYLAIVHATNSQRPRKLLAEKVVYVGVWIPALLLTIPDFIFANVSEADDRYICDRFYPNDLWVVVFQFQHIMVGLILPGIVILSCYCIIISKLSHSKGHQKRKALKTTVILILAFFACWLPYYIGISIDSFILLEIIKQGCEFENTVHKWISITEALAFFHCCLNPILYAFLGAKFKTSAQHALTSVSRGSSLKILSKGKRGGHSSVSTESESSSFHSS

IC50 (D-Ala N-hexyl series, R varied) [nM] | IC50 (alkyl chain length n varied) [nM] | SMILES | further results
– | – | C[C@@H]1C(=O)N[C@@H](CCCNC(=N)N)C(=O)N[C@@H](Cc2ccc3ccccc3c2)C(=O)NCC(=O)N[C@H](Cc2ccc(O)cc2)C(=O)N1CCCCCCNC(=O)CCCCCCC(=O)NCCCCCCN1C(=O)[C@@H](Cc2ccc(O)cc2)NC(=O)CNC(=O)[C@H](Cc2ccc3ccccc3c2)NC(=O)[C@H](CCCNC(=N)N)NC(=O)[C@H]1C [Dimer 8, ya(Hex)RNalG octan-1,8-diacid dimer] (I: cyclo([2Nal]G[dY][X3]R) / II: cyclo([2Nal]G[dY][X3]R); linker I:4-II:4 via Suberoyl) | IC50 (dimers): 15.9 ± 10.6 nM
– | – | C[C@H]1C(=O)N[C@@H](CCCNC(=N)N)C(=O)N[C@@H](Cc2ccc3ccccc3c2)C(=O)NCC(=O)N[C@H](Cc2ccc(O)cc2)C(=O)N1CCCCCCNC(=N)N [yA(Hex,Gua)RNa IG, cyclo(-D-Tyr-(α-6-guanidinohexyl)-L-Ala-R-Nal-G)] (cyclo([2Nal]G[dY][X1]R)) | IC50 (L-Ala series): 4.4 ± 0.3 nM
– | – | C[C@H]1C(=O)N[C@@H](CCCNC(=N)N)C(=O)N[C@@H](Cc2ccc3ccccc3c2)C(=O)NCC(=O)N[C@H](Cc2ccc(O)cc2)C(=O)N1CCCCCCN [yA(Hex)RNalG] (cyclo([2Nal]G[dY][X10]R)) | IC50 (L-Ala series): 94.2 ± 38 nM
– | – | C[C@@H]1C(=O)N[C@@H](CCCNC(=N)N)C(=O)N[C@@H](Cc2ccc3ccccc3c2)C(=O)NCC(=O)N[C@H](Cc2ccc(O)cc2)C(=O)N1CCCCCCNC(=O)CCCCC(=O)NCCCCCCN1C(=O)[C@@H](Cc2ccc(O)cc2)NC(=O)CNC(=O)[C@H](Cc2ccc3ccccc3c2)NC(=O)[C@H](CCCNC(=N)N)NC(=O)[C@H]1C [Dimer 6, ya(Hex)RNalG hexan-1,6-diacid dimer] (I: cyclo([2Nal]G[dY][X3]R) / II: cyclo([2Nal]G[dY][X3]R); linker I:4-II:4 via Adipoyl) | IC50 (dimers): 7.8 ± 3.1 nM
44.1 ± 6.2 | – | CC(=O)NCCCCCCN1C(=O)[C@@H](Cc2ccc(O)cc2)NC(=O)CNC(=O)[C@H](Cc2ccc3ccccc3c2)NC(=O)[C@H](CCCNC(=N)N)NC(=O)[C@H]1C [ya(Hex,Ac) RNalG, cyclo(-D-Tyr-(α-6-aminohexyl, Ac)-D-Ala-R-Nal-G)] (cyclo([2Nal]G[dY][X7]R)) | –
– | 2.4 ± 0.8 | C[C@@H]1C(=O)N[C@@H](CCCNC(=N)N)C(=O)N[C@@H](Cc2ccc3ccccc3c2)C(=O)NCC(=O)N[C@H](Cc2ccc(O)cc2)C(=O)N1CCCCCCCN [ya(Hept)RNalG, cyclo(-D-Tyr-(α-7-aminoheptyl)-D-Ala-R-Nal-G)] (cyclo([2Nal]G[dY][X2]R)) | –
– | 16.5 ± 3.1 | C[C@@H]1C(=O)N[C@@H](CCCNC(=N)N)C(=O)N[C@@H](Cc2ccc3ccccc3c2)C(=O)NCC(=O)N[C@H](Cc2ccc(O)cc2)C(=O)N1CCCCCCCNC(=O)c1ccc(F)cc1 [ya(Hept,FBz)RNalG, cyclo(-D-Tyr-(α-7-aminoheptyl, 4-fluorobenzoic acid)-D-Ala-R-Nal-G)] (cyclo([dY][X6]R[2Nal]G)) | –
– | 0.9 ± 0.1 | C[C@@H]1C(=O)N[C@@H](CCCNC(=N)N)C(=O)N[C@@H](Cc2ccc3ccccc3c2)C(=O)NCC(=O)N[C@H](Cc2ccc(O)cc2)C(=O)N1CCCCN [ya(But)RNalG, cyclo(-D-Tyr-(α-4-aminobutyl)-D-Ala-R-Nal-G)] (cyclo([2Nal]G[dY][X11]R)) | –
0.3 ± 0.2 | – | C[C@@H]1C(=O)N[C@@H](CCCNC(=N)N)C(=O)N[C@@H](Cc2ccc3ccccc3c2)C(=O)NCC(=O)N[C@H](Cc2ccc(O)cc2)C(=O)N1CCCCCCN [ya(Hex)RNalG] (cyclo([2Nal]G[dY][X12]R)) | –
– | – | N=C(N)NCCC[C@@H]1NC(=O)CN(CCCCCCN)C(=O)[C@@H](Cc2ccc(O)cc2)NC(=O)CNC(=O)[C@H](Cc2ccc3ccccc3c2)NC1=O [yG(Hex)RNalG, cyclo(-D-Tyr-(α-6-aminohexyl)-G-R-Nal-G)] (cyclo([2Nal]G[dY][Gly(N-(CH2)6NH2)]R)) | IC50 (Gly analogue): 104 nM
– | 26 ± 5.7 | C[C@@H]1C(=O)N[C@@H](CCCNC(=N)N)C(=O)N[C@@H](Cc2ccc3ccccc3c2)C(=O)NCC(=O)N[C@H](Cc2ccc(O)cc2)C(=O)N1CCCCNC(=O)c1ccc(F)cc1 [ya(But,FBz)RNalG, cyclo(-D-Tyr-(α-4-aminobutyl, 4-fluorobenzoic acid)-D-Ala-R-Nal-G)] (cyclo([2Nal]G[dY][X9]R)) | –
0.04 ± 0.02 | – | C[C@@H]1C(=O)N[C@@H](CCCNC(=N)N)C(=O)N[C@@H](Cc2ccc3ccccc3c2)C(=O)NCC(=O)N[C@H](Cc2ccc(O)cc2)C(=O)N1CCCCCCNC(=N)N [ya(Hex, Gua) RNalG, cyclo(-D-Tyr-(α-6-guanidinohexyl)-D-Ala-R-Nal-G)] (cyclo([dY][dAla(N-(6-guanidinohexyl))]R[2Nal]G)) | –
509.7 ± 0.2 | – | C[C@@H]1C(=O)N[C@@H](CCCNC(=N)N)C(=O)N[C@@H](Cc2ccc3ccccc3c2)C(=O)NCC(=O)N[C@H](Cc2ccc(O)cc2)C(=O)N1CCCCCCNC(=O)CN1CCN(CC(=O)O)CCN(CC(=O)O)CCN(CC(=O)O)CC1 [ya(Hex,DOTA) RNalG, cyclo(-D-Tyr-(α-6-aminohexyl, DOTA)-D-Ala-R-Nal-G)] (cyclo([2Nal]G[dY][X3](DOTA)R)) | –
21.4 ± 5.8 | – | C[C@@H]1C(=O)N[C@@H](CCCNC(=N)N)C(=O)N[C@@H](Cc2ccc3ccccc3c2)C(=O)NCC(=O)N[C@H](Cc2ccc(O)cc2)C(=O)N1CCCCCCNC(=O)c1ccc(F)cc1 [ya(Hex, FBz) RNalG, cyclo(-D-Tyr-(α-6-aminohexyl, 4-fluorobenzoic acid)-D-Ala-R-Nal-G)] (cyclo([2Nal]G[dY][X8]R)) | –
– | 1.6 ± 0.3 | C[C@@H]1C(=O)N[C@@H](CCCNC(=N)N)C(=O)N[C@@H](Cc2ccc3ccccc3c2)C(=O)NCC(=O)N[C@H](Cc2ccc(O)cc2)C(=O)N1CCCCCN [ya(Pent)RNalG, cyclo(-D-Tyr-(α-5-aminopentyl)-D-Ala-R-Nal-G)] (cyclo([2Nal]G[dY][X13]R)) | –
– | 34.2 ± 9.3 | C[C@@H]1C(=O)N[C@@H](CCCNC(=N)N)C(=O)N[C@@H](Cc2ccc3ccccc3c2)C(=O)NCC(=O)N[C@H](Cc2ccc(O)cc2)C(=O)N1CCCCCNC(=O)c1ccc(F)cc1 [ya(Pent, FBz)RNalG, cyclo(-D-Tyr-(α-5-aminopentyl, 4-fluorobenzoic acid)-D-Ala-R-Nal-G)] (cyclo([2Nal]G[dY][X14]R)) | –
– | – | C[C@@H]1C(=O)N[C@@H](CCCNC(=N)N)C(=O)N[C@@H](Cc2ccc3ccccc3c2)C(=O)NCC(=O)N[C@H](Cc2ccc(O)cc2)C(=O)N1CCCCCCNC(=O)CCC(=O)NCCCCCCN1C(=O)[C@@H](Cc2ccc(O)cc2)NC(=O)CNC(=O)[C@H](Cc2ccc3ccccc3c2)NC(=O)[C@H](CCCNC(=N)N)NC(=O)[C@H]1C [Dimer 4, ya(Hex)RNalG butan-1,4-diacid dimer] (I: cyclo([2Nal]G[dY][X3]R) / II: cyclo([2Nal]G[dY][X3]R); linker I:4-II:4 via Suc) | IC50 (dimers): 5.5 ± 1.4 nM
5.1 ± 1.3 | – | C[C@@H]1C(=O)N[C@@H](CCCNC(=N)N)C(=O)N[C@@H](Cc2ccc3ccccc3c2)C(=O)NCC(=O)N[C@H](Cc2ccc(O)cc2)C(=O)N1CCCCCCNCc1cccc2ccccc12 [ya(Hex,1 Nap) RNalG, cyclo(-D-Tyr-(α-6-aminohexyl,1-naphthylmethyl)-D-Ala-R-Nal-G)] (cyclo([2Nal]G[dY][X5]R)) | –
4.2 ± 1.4 | – | C[C@@H]1C(=O)N[C@@H](CCCNC(=N)N)C(=O)N[C@@H](Cc2ccc3ccccc3c2)C(=O)NCC(=O)N[C@H](Cc2ccc(O)cc2)C(=O)N1CCCCCCNCc1ccccc1 [ya(Hex, Bz) RNalG, cyclo(-D-Tyr-(α-6-aminohexyl, benzyl)-D-Ala-R-Nal-G)] (cyclo([2Nal]G[dY][X4]R)) | –
